According to patent US20080199855A1, “Identification And Characterization Of A Subset of Glioblastomas Sensitive To Treatment With Imatinib” (priority 2004, published 2008):

What was measured:
ERK = assay: Compound I-induced change in ERK phosphorylation in GBM cultures (immunoblotting); format: cell-based, human; details: 10 GBM cultures; 1 μM compound I for 1 h; 10% FCS
Method: (§1) Glioblastoma cell cultures were confluently plated in 12-well plate wells (Falcon). […] Samples, with normalized protein content, were subjected to SDS-PAGE using 12% gels. Control lysates from un-stimulated and PDGF-BB-stimulated PAE/Rβ cells were loaded on each gel. Samples were electrophoretically transferred to Hydrobond-C-Extra filters (Amersham Life Science). For detection of phosphorylated forms of ERK and Akt, filters were blocked for 1 h in Tris buffered saline pH 7.6 (TBS), 0.137 M NaCl and 0.0035 M Tris-HCl, containing 5% BSA, and incubated over night with 1 μg/ml anti phospho-p44/42 MAPK Thr202/Tyr204 (Cell Signaling Technology) or 1 μg/ml anti phospho-Akt Ser473 (Cell Signaling Technology) in TBS with 0.001% Tween-20 (TTBS). After three 10 min washes in TTBS, the filters were incubated for 1 h with horseradish peroxidase coupled sheep anti-rabbit antibody (Amersham Life Science) diluted 1:25000, and washed three times 10 min in TTBS. The antigens were detected using the Lumi-Light plus western blotting substrate (Roche) according to the manufacturer's instruction with an Intelligent Darkbox II digital scanner (FUJIFILM). […] Values were quantified by using the AIDA software version 3.10.039 (FUJIFILM). The relative expression and phosphorylation of ERK and Akt in the different GBM cultures, was determined by using the reference samples from the PAE/Rβ cells.

Akt = assay: Compound I-induced change in Akt phosphorylation in GBM cultures (immunoblotting); format: cell-based, human; details: 10 GBM cultures; 1 μM compound I for 1 h; 10% FCS
Method: as §1

GBM culture 5 = assay: cells; details: Homo sapiens, 96 h, read-out: growth inhibition (% reduction of increase in cell number)
GBM culture 18 = assay: cells; details: Homo sapiens, 96 h, read-out: growth inhibition (% reduction of increase in cell number)
GBM culture 21 = assay: cells; details: Homo sapiens, 96 h, read-out: growth inhibition (% reduction of increase in cell number)
GBM culture 30 = assay: cells; details: Homo sapiens, 96 h, read-out: growth inhibition (% reduction of increase in cell number)
GBM culture 34 = assay: cells; details: Homo sapiens, 96 h, read-out: growth inhibition (% reduction of increase in cell number)
GBM culture 35 = assay: cells; details: Homo sapiens, 96 h, read-out: growth inhibition (% reduction of increase in cell number)
GBM culture 38 = assay: cells; details: Homo sapiens, 96 h, read-out: growth inhibition (% reduction of increase in cell number)
GBM culture 6 = assay: cells; details: Homo sapiens, 96 h, read-out: growth inhibition (% reduction of increase in cell number)
GBM culture 7 = assay: cells; details: Homo sapiens, 96 h, read-out: growth inhibition (% reduction of increase in cell number)
GBM culture 9 = assay: cells; details: Homo sapiens, 96 h, read-out: growth inhibition (% reduction of increase in cell number)
GBM culture 11 = assay: cells; details: Homo sapiens, 96 h, read-out: growth inhibition (% reduction of increase in cell number)
GBM culture 31 = assay: cells; details: Homo sapiens, 96 h, read-out: growth inhibition (% reduction of increase in cell number)
GBM culture 45 = assay: cells; details: Homo sapiens, 96 h, read-out: growth inhibition (% reduction of increase in cell number)
GBM culture 8 = assay: cells; details: Homo sapiens, 96 h, read-out: growth inhibition (% reduction of increase in cell number)
GBM culture 27 = assay: cells; details: Homo sapiens, 96 h, read-out: growth inhibition (% reduction of increase in cell number)
GBM culture 13 = assay: Growth inhibition induced by compound I, GBM culture 13; details: Homo sapiens, 96 h, read-out: growth inhibition (% reduction of increase in cell number)

Cc1ccc(NC(=O)c2ccc(CN3CCN(C)CC3)cc2)cc1Nc1nccc(-c2cccnc2)n1 [compound I]
compound I-induced change in specific phosphorylation of ERK (ERK): only moderate changes
compound I-induced change in specific phosphorylation of Akt (Akt): only moderate changes
inhibition at 1 µM (GBM culture 5): < 15%
inhibition at 1 µM (GBM culture 18): < 15%
inhibition at 1 µM (GBM culture 21): < 15%
inhibition at 1 µM (GBM culture 30): < 15%
inhibition at 1 µM (GBM culture 34): < 15%
inhibition at 1 µM (GBM culture 35): < 15%
inhibition at 1 µM (GBM culture 38): < 15%
inhibition at 1 µM (GBM culture 6): > 40%
inhibition at 1 µM (GBM culture 7): > 40%
inhibition at 1 µM (GBM culture 9): > 40%
inhibition at 1 µM (GBM culture 11): > 40%
inhibition at 1 µM (GBM culture 31): > 40%
inhibition at 1 µM (GBM culture 45): > 40%
inhibition at 1 µM (GBM culture 8): 20 to 40%
inhibition at 1 µM (GBM culture 27): 20 to 40%
inhibition at 1 µM (GBM culture 13): 20 to 40%
